What was measured:
[1] = stated as known; cited from earlier work
[2] = Antioxidant activity against hydroxyl radicals (degradation of target protein, FIG. 2A); assay type: biochemical; conditions: prevention of degradation of target protein
Text: FIG. 2A is a hydroxyl radical, in which 1 is untreated target protein, 2 is no antioxidant added, 3 is IMDP added, 4 is vitamin C added, 5 is ferulic acid added, 6 is IMDP+vitamin C+ferulic acid added; and
(§1) Therefore, by coexisting with these antioxidants, the antioxidant effect of IMDP is retained both for hydroxyl radicals and peroxynitrite radicals.

[3] = stated as known; cited from earlier work; remark: listed apart in the source
[4] = Antioxidant activity against peroxynitrite radicals (proteolytic action on target protein, FIG. 2B); assay type: biochemical; conditions: prevention of degradation of target protein
Text: FIG. 2B is a proteolytic action by a peroxynitrite radical.
as §1

For `CC1=C(/C=C/C(C)=C/C=C/C(C)=C/C=C/C=C(C)/C=C/C=C(C)/C=C/C2=C(C)C(=O)[C@@H](O)CC2(C)C)C(C)(C)C[C@H](O)C1=O` [astaxanthin], the “antioxidant activity against hydroxyl radicals (known)” value [1] is given as “strong antioxidant activity”.

In the case of `COc1cc(/C=C/C(=O)O)ccc1O` [ferulic acid], the “antioxidant activity against hydroxyl radicals” value [2] is reported as “strong antioxidant activity”.

For `O=C1O[C@H]([C@@H](O)CO)C(O)=C1O` [vitamin C], the “antioxidant activity against peroxynitrite radicals (known)” value [3] is given as “strong antioxidant activity” and the “antioxidant activity against peroxynitrite radicals” value [4] is given as “strong antioxidant activity”.

In the case of vitamin E, the “antioxidant activity against hydroxyl radicals (known)” value [1] is given as “strong antioxidant activity”.
